Read-outs that look alike come from different tables or passages of the source.
Assays:
Type in all cases: cell-based, human
[1] = system: MB9812 cells; experiment: FLIPR calcium flux assay, tastant response in MB9812 cells
Description: Calcium flux assays were performed as previously described in Strachan et al., “Ribosomal S6 kinase 2 directly phosphorylates the 5-hydroxytryptamine 2A (5-HT2A) serotonin receptor, thereby modulating 5-HT2A signaling,” J Biol Chem 284:5557-5573 (2009). MB9812, NCI-H520 or NCI-H522 cells were trypsinized, counted, and seeded onto clear-bottomed 96 well plates (Greiner Bio-One; Monroe, N.C.) pre-coated with poly-D-lysine, at a density of 7.5×10^5 cells per well. After a 24 hour incubation, media was removed and replaced with a […] assay buffer (20 mM HEPES, 1× HBSS, 2.5 mM probenecid, and Ca^2+ assay dye, pH 7.4) (FLIPR® Calcium Assay Kit; Molecular Device Corp, Sunnyvale, Calif.). After a 1-hour incubation at 37° C., during which the cells were allowed to take up the dye, fluorescence responses of cells were measured with a FLIPRTETRA (Molecular Device Corp; Sunnyvale, Calif.) device upon the addition of variable concentrations of tastant, or vehicle, in the presence of assay buffer (20 mM HEPES, pH 7.4, 1× Hanks Balanced Salt [Invitrogen; Carlsbad, Calif.] and 2.5 mM probenecid). After data acquisition, a subsequent addition of […] was injected into each well, and fluorescence was measured again. Net peak responses to tastants were normalized to net peak responses to thapsigargin. Responses were compared with that of wild-type control MB9812, NCI-H520 or NCI-H522 cells. Statistical and graphical analyses were performed using Prism v. 5.0b (GraphPad Software; La Jolla, Calif.).
MB9812, NCI-H520 and NCI-H522 cells were selected for taste stimulation. The cells were loaded with fluorescent calcium-sensitive dye, treated with a variety of tastants, and monitored for intracellular calcium release with a FLIPR imaging device.

[2] = system: NCI-H520 cells; experiment: FLIPR calcium flux assay, tastant response in NCI-H520 cells
Description: (§1) Calcium flux assays were performed as previously described in Strachan et al., “Ribosomal S6 kinase 2 directly phosphorylates the 5-hydroxytryptamine 2A (5-HT2A) serotonin receptor, thereby modulating 5-HT2A signaling,” J Biol Chem 284:5557-5573 (2009). MB9812, NCI-H520 or NCI-H522 cells were trypsinized, counted, and seeded onto clear-bottomed 96 well plates (Greiner Bio-One; Monroe, N.C.) pre-coated with poly-D-lysine, at a density of 7.5×10^5 cells per well. After a 24 hour incubation, media was removed and replaced with a […] assay buffer (20 mM HEPES, 1× HBSS, 2.5 mM probenecid, and Ca^2+ assay dye, pH 7.4) (FLIPR® Calcium Assay Kit; Molecular Device Corp, Sunnyvale, Calif.). After a 1-hour incubation at 37° C., during which the cells were allowed to take up the dye, fluorescence responses of cells were measured with a FLIPRTETRA (Molecular Device Corp; Sunnyvale, Calif.) device upon the addition of variable concentrations of tastant, or vehicle, in the presence of assay buffer (20 mM HEPES, pH 7.4, 1× Hanks Balanced Salt [Invitrogen; Carlsbad, Calif.] and 2.5 mM probenecid). After data acquisition, a subsequent addition of […] was injected into each well, and fluorescence was measured again. Net peak responses to tastants were normalized to net peak responses to thapsigargin. […]

[3] = system: NCI-H522 cells; experiment: FLIPR calcium flux assay, tastant response in NCI-H522 cells
Description: as §1

| Compound | cell response to tastant (increase in intracellular calcium, FLIPR calcium flux) [1] | cell response to tastant (increase in intracellular calcium, FLIPR calcium flux) [2] | cell response to tastant (increase in intracellular calcium, FLIPR calcium flux) ([1]; listed as denatonium B) | cell response to tastant (increase in intracellular calcium, FLIPR calcium flux) [3] |
| --- | --- | --- | --- | --- |
| O=C(CO)[C@@H](O)[C@H](O)[C@H](O)CO [fructose] | response |  |  |  |
| C=C1C[C@@]23CC[C@H]4[C@@](C)(CCC[C@@]4(C)C(=O)O[C@@H]4O[C@H](CO)[C@@H](O)[C@H](O)[C@H]4O)[C@@H]2CC[C@]1(O[C@@H]1O[C@H](CO)[C@@H](O)[C@H](O[C@@H]2O[C@H](CO)[C@@H](O)[C@H](O)[C@H]2O)[C@H]1O[C@@H]1O[C@H](CO)[C@@H](O)[C@H](O)[C@H]1O)C3 [Rebaudioside A] |  | respond |  |  |
| CC[N+](CC)(CC(=O)Nc1c(C)cccc1C)Cc1ccccc1 [denatonium-B, denatonium benzoate] | respond | respond | response | respond |
| OC[C@H]1O[C@@](CO)(O[C@H]2O[C@H](CO)[C@@H](O)[C@H](O)[C@H]2O)[C@@H](O)[C@@H]1O [sucrose] | response |  |  |  |

Source: US20130040317A1, “CELL LINES COMPRISING ENDOGENOUS TASTE RECEPTORS AND THEIR USES” (THE UNIVERSITY OF NORTH CAROLINA AT CHAPEL HILL, priority 2011, published 2013)
